Measurements: ChEMBL document CHEMBL3045373, “New thiazolidinyl analogs containing pyridine ring: synthesis, biological evaluation and QSAR studies” (2013)

Experiments:
[1] = tested on: Mus musculus; assay: Analgesic activity in Mus musculus Swiss albino (mouse) assessed as inhibition of acetic acid-induced writhing at 50 mg/kg, po administered 30 min prior to acetic acid challenge measured at 5 to 15 min relative to untreated control; type: functional
[2] = tested on: Rattus norvegicus; assay: Anti-inflammatory activity against Rattus norvegicus Wistar (rat) assessed as inhibition of carrageenan-induced paw edema at 10 mg/kg, po administered 30 min prior to carrageenan challenge measured at 120 min by plethysmometeric analysis relative to untreated control; type: functional

Compound | inhibition in vivo at 50 mg/kg [1] [%] | inhibition in vivo at 10 mg/kg [2] [%]
O=C1N/C(=N/c2ccccc2)S/C1=C\c1ccccn1 | 29.2 | 26.2
O=C1N/C(=N/c2ccc(Cl)cc2)S/C1=C\c1ccccn1 | 41.7 | 34.8
Cc1cccc(/N=C2/NC(=O)/C(=C/c3ccccn3)S2)c1 | 52.3 | 39.7
Cc1ccc(/N=C2/NC(=O)/C(=C/c3ccccn3)S2)cc1 | 43.2 | 43.8
O=C1N/C(=N/c2ccc(F)cc2)S/C1=C\c1ccccn1 | 43.2 | 34.7
O=C1N/C(=N\Nc2ccccc2)S/C1=C\c1ccccn1 | 46.2 | 39.7
O=C1N/C(=N\c2ccccc2[N+](=O)[O-])S/C1=C/c1ccccn1 | 36.7 | 34.8
O=C1N/C(=N\Nc2ccc([N+](=O)[O-])cc2[N+](=O)[O-])S/C1=C\c1ccccn1 | 68.7 | 56.5
COc1ccc(/N=C2\NC(=O)/C(=C/c3ccccn3)S2)cc1 | 42.4 | 39.1
O=C1N/C(=N/c2cccc([N+](=O)[O-])c2)S/C1=C\c1ccccn1 | 62.3 | 43.5
O=C1N/C(=N/c2ccc([N+](=O)[O-])cc2Cl)S/C1=C\c1ccccn1 | 37.4 | 39.7
Cc1cccc(C)c1/N=C1/NC(=O)/C(=C/c2ccccn2)S1 | 51.5 | 39.7
O=C1N/C(=N/c2ccccc2Cl)S/C1=C\c1ccccn1 | 36.2 | 26.2
Cc1ccccc1/N=C1/NC(=O)/C(=C/c2ccccn2)S1 | 43.6 | 30.4
O=C1N/C(=N/c2ccc(Br)cc2)S/C1=C\c1ccccn1 | 28.7 | 30.4
O=C(O)Cc1ccccc1Nc1c(Cl)cccc1Cl [DICLOFENAC SODIUM] | 60.2 | 43.5
